test system: SMART-CAR_MTH1-WT (Jurkat.2 cells); assay: HTFC Assay (HTFC DC50); format: cell-based, human; details: Jurkat.2 (SMART-CAR_MTH1-WT) cells, 4 hours at 37° C., FITC anti-HA staining, flow cytometry
Experimental: FITC anti-HA.11 epitope tag antibody (Biolegend #901507) FITC Mouse IgG1 k isotope control antibody (Biolegend #400108)
Dry dispense 10 nL/well of compound+90 […] into 96-well V-bottom plates: 4 compounds/plate in 11-point dose response in biological duplicates. Column 12 as DMSO controls.
• 1. Plate Jurkat.2 (SMART-CAR_MTH1-WT) cells with Combi on top of dry dispensed compound: 500,000 cells/mL, 100 uL/well • 2. Incubate for 4 hours at 37° C. • 3. Fixation, permeabilization, and staining: • a. Centrifuge at 1500 rpm for 7 minutes, remove supernatant. • b. Add 100 μl of Fixation/Permeabilization Solution, seal plates, vortex, pulse spin, and incubate at 4° C. for 30 minutes. • c. Centrifuge at 1500 rpm for 7 minutes, remove supernatant. • d. Dilute BD Perm/Wash Buffer to 1× with milliQ water. • e. Wash with 200 uL of BD Perm/Wash Buffer, seal plates, vortex. • f. Centrifuge at 1500 rpm for 7 minutes, remove supernatant. • g. Wash with 200 uL of BD Perm/Wash Buffer, seal plates, vortex. (Option to stop, store at 4° C. if needed) • h. Centrifuge at 1500 rpm for 7 minutes, remove supernatant. • i. Add 50 uL BD Perm/Wash Buffer containing 1:1000 of HA-FITC (Well A12:D12) or IgG-FITC (Well F12:H12) directly conjugated antibody, seal plates, vortex, pulse spin, and incubate at 4° C. for 1 hour. • j. Centrifuge at 1500 rpm for 7 minutes, remove supernatant. • k. Wash with 200 uL of BD Perm/Wash Buffer, seal plates, vortex. • 4. Centrifuge at 1500 rpm for 7 minutes, remove supernatant. • a. Resuspend in 200 ul of BD Perm/Wash Buffer. (Option to stop, store at 4° C. if needed)
• 1. Use analysis from template HTFC file. • 2. Export statistics by going to Tools>Group stats, save as a .csv file with the plate barcode as the name. • 3. Remove all columns from this file except for “Well”, “Sample ID”, “Date”, and “HA+.Mean.Y Mean for HA+ gated by P01.cells”. • 4. Create a New DB Analysis in Scinamic using the “HTFC-Cell Pharm” template. • 5. Load Incyte file “barcode”.csv. • 6. Load Echo file with the generated Echo report (P:\LabData\Echo\Project\SMARTCAR\Echo Report\Labcyte Echo Dose-Response) • 7. Edit Platemap.xlsx with the plate barcodes. • 8. Load Plate Map with this file. • 9. Cleanup compound Ids, mask control outliers, and assign curves.
Using the above assay the HTFC DC50 data was determined for the compounds in Table 2 below.
Example 6: HiBit and HTFC DC50 Data for Representative Compounds of the Present Invention

DC50, < 100 nM:
CNC(=O)c1cnc2ccc(-c3ccn(CCCCCCNC(=O)COc4cccc5c4C(=O)N(C4CCC(=O)NC4=O)C5=O)n3)cc2c1Nc1ccccc1 (stereo not drawn) [Compound 361, 4-anilino-6-[1-[6-[[2-[2-(2,6-dioxo-3-piperidyl)-1,3-dioxo-isoindolin-4-yl]oxyacetyl]amino]hexyl]pyrazol-3-yl]-N-methyl-quinoline-3-carboxamide]
CNC(=O)c1cnc2ccc(-c3ccc(C(=O)NCCCN4CCC(Nc5cccc6c5C(=O)N(C5CCC(=O)NC5=O)C6=O)CC4)cc3)cc2c1Nc1ccccc1 (stereo not drawn) [Compound 366, 4-anilino-6-[4-[3-[4-[[2-(2,6-dioxo-3-piperidyl)-1,3-dioxo-isoindolin-4-yl]amino]-1-piperidyl]propylcarbamoyl]phenyl]-N-methyl-quinoline-3-carboxamide]
CNC(=O)c1cnc2cc(OC)c(-c3ccc(C(=O)NCCCCNC(=O)C(C)Nc4cccc5c4C(=O)N(C4CCC(=O)NC4=O)C5=O)c(F)c3)cc2c1Nc1ccccc1 (stereo not drawn) [Compound 367, 6-(4-((4-(2-((2-(2,6-dioxopiperidin-3-yl)-1,3-dioxoisoindolin-4-yl)amino)propanamido)butyl)carbamoyl)-3-fluorophenyl)-7-methoxy-N-methyl-4-(phenylamino)quinoline-3-carboxamide]
CNC(=O)c1cnc2ccc(-c3ccc(OCCCCNC(=O)CNc4cccc5c4C(=O)N(C4CCC(=O)NC4=O)C5=O)nc3)cc2c1Nc1ccccc1 (stereo not drawn) [Compound 369, 4-anilino-6-[6-[4-[[2-[[2-(2,6-dioxo-3-piperidyl)-1,3-dioxo-isoindolin-4-yl]amino]acetyl]amino]butoxy]-3-pyridyl]-N-methyl-quinoline-3-carboxamide]
CNC(=O)c1cnc2cc(OC)c(OCC3CCN(C(=O)CCCNC(=O)CNc4cccc5c4C(=O)N(C4CCC(=O)NC4=O)C5=O)CC3)cc2c1Nc1ccccc1 (stereo not drawn) [Compound 370, 6-((1-(4-(2-((2-(2,6-dioxopiperidin-3-yl)-1,3-dioxoisoindolin-4-yl)amino)acetamido)butanoyl)piperidin-4-yl)methoxy)-7-methoxy-N-methyl-4-(phenylamino)quinoline-3-carboxamide]
CNC(=O)c1cnc2cc(OC)c(OCC3CCN(CCCCNC(=O)CNc4cccc5c4C(=O)N(C4CCC(=O)NC4=O)C5=O)CC3)cc2c1Nc1ccccc1 (stereo not drawn) [Compound 371, 6-((1-(4-(2-((2-(2,6-dioxopiperidin-3-yl)-1,3-dioxoisoindolin-4-yl)amino)acetamido)butyl)piperidin-4-yl)methoxy)-7-methoxy-N-methyl-4-(phenylamino)quinoline-3-carboxamide]
COc1cc2ncc(C(=O)NC(C)(C)C)c(Nc3ccccc3)c2cc1-c1ccc(C(=O)NCCCCn2cc(CNc3cccc4c3C(=O)N(C3CCC(=O)NC3=O)C4=O)nn2)nc1 (stereo not drawn) [Compound 373, N-(tert-butyl)-6-(6-((4-(4-(((2-(2,6-dioxopiperidin-3-yl)-1,3-dioxoisoindolin-4-yl)amino)methyl)-1H-1,2,3-triazol-1-yl)butyl)carbamoyl)pyridin-3-yl)-7-methoxy-4-(phenylamino)quinoline-3-carboxamide]
CNC(=O)c1cnc2cc(OC)c(-c3cnc(C(=O)NCCCCn4cc(CNc5cccc6c5C(=O)N(C5CCC(=O)NC5=O)C6=O)nn4)cn3)cc2c1Nc1ccccc1 (stereo not drawn) [Compound 380, 6-(5-((4-(4-(((2-(2,6-dioxopiperidin-3-yl)-1,3-dioxoisoindolin-4-yl)amino)methyl)-1H-1,2,3-triazol-1-yl)butyl)carbamoyl)pyrazin-2-yl)-7-methoxy-N-methyl-4-(phenylamino)quinoline-3-carboxamide]
CNC(=O)c1cnc2ccc(NCCCCCCCCCCNC(=O)COc3cccc4c3C(=O)N(C3CCC(=O)NC3=O)C4=O)cc2c1NC1CC1 (stereo not drawn) [Compound 460, 4-(cyclopropylamino)-6-((10-(2-((2-(2,6-dioxopiperidin-3-yl)-1,3-dioxoisoindolin-4-yl)oxy)acetamido)decyl)amino)-N-methylquinoline-3-carboxamide]
